Source: patent publication US20110172204A1, “COMPOUNDS AND THEIR USE” (TAKEDA PHARMACEUTICAL COMPANY LIMITED, priority 2010, published 2011)

Columns and labels:
human H3 receptor [1] = target: T1, human H3 receptor (Homo sapiens, UniProt Q9Y5N1); assay: In vitro H3 binding assay (3H-NαMH competition binding); set-up: expressed in transfected cells; conditions: membranes of CHO-K1 cells expressing human H3; inhibition of specific binding of 2 nM 3H-NαMH; read-out: hH3 binding IC50
Procedure: The ability of compounds to bind to the H3 receptor was determined by measuring the reduction in tritiated N-α-methyl-histamine (^3H-NαMH) binding in a competition binding assay. Changes in the levels of bound radio-label were monitored by scintillation counting with a Trilux Microbeta (Perkin Elmer).
Membranes were prepared from CHO-K1 cells stably expressing human H3 receptor; routinely grown as monolayers in Ham's F12 medium (Invitrogen) supplemented with 10% Foetal Clone III (Hyclone), 500 μg/ml G418 (Invitrogen), 5 μg/ml blasticidine S (Invivogen) and 50 μg/ml Gentamicin (Sigma) in 5% CO2 at 37° C. Cells were grown to 80-95% confluency, rinsed once with 1×PBS (Invitrogen) and detached by incubating with 1×PBS containing 0.02% EDTA (Sigma) for 10 minutes at room temperature. Cells were collected by centrifugation at 900×g, 4° C. for 10 minutes. Cells were rinsed once with 1×PBS and re-suspended in ice cold homogenisation buffer (50 mM Tris-HCl (pH 7.4), 2.5 mM EDTA, 5 mM MgCl2, 200 mM Sucrose) at 1×10^7 cells/ml and kept on ice. Cells were homogenised on ice and debris removed by centrifugation at 500×g, 4° C. for 5 minutes. The resulting supernatant was centrifuged at 75,600×g, 4° C. for 60 minutes. Membranes were suspended in homogenisation buffer, protein concentration was determined (BCA Protein Assay kit (Pierce)), diluted to 2.2 mg/ml, dispensed into 1 ml aliquots and stored at −80° C.
Membranes were thawed on ice, sonicated with 4 cycles of 20 pulses (50% amplitude, 0.5 pulse) (UP200S Hielscher) on ice, diluted in assay buffer (50 mM Tris-HCl (pH7.4), 5 mM MgCl2) to 62.5 μg/ml. Compound was serially diluted in DMSO before being diluted 1:10 with assay buffer. 5 μg of membrane in 80 μl of assay buffer was added per well of a 96 well polystyrene plate (Corning). 10 μl of compound was added per well. The assay was initiated by the addition of 10 μl of 20 nM ^3H-NαMH per well and incubated for one hour at room temperature with shaking Total binding was determined in the presence of 1% DMSO and non-specific binding was determined by the inclusion of 1 μM R-α-methyl-histamine (RαMH). Incubations were then filtered through filtermat A (Perkin Elmer) and washed three times with assay buffer. Filtermats were dried at 42° C. for two hours, scintillant added and the level of bound radioactivity determined.
IC50 values for compounds were determined from seven point log scale dose-response studies and represent the concentration of compound required to inhibit 50% of the specific binding of 2 nM ^3H-NαMH (difference between total and non-specific binding). Curves were generated using the average of duplicate wells for each data point and analyzed using nonlinear regression of sigmoidal dose response (variable slope).

human H3 receptor [2] = target: T1, human H3 receptor; assay: In vitro H3 functional assay (cAMP response element driven luciferase reporter); format: cell-based; set-up: expressed in transfected cells; conditions: CHO(dhfr+)-cre-luc cells expressing human H3; forskolin 1 μM, RαMH 10 nM; read-out: hH3 functional IC50
Procedure: The functional activity of compounds at the H3 receptor was determined by measuring changes in the level of intracellular cAMP using a cAMP response element driven luciferase reporter assay. The changes in luciferase expression were monitored by a luminescence plate reader, Analyst HT (MDS Analytical). Increases in intracellular cAMP were readily detected upon activation of protein kinase A by forskolin (Sigma) and suppression of this response observed with the application of the H3 receptor agonist RαMH (Sigma).
CHO(dhfr^+)-cre-luc cells stably expressing human H3 receptor were routinely grown as monolayers in Minimal Essential Medium α (MEMα) (Invitrogen) supplemented with 10% dialysed FBS (Hyclone), in 5% CO2 at 37° C. 48 hours prior to assay, cells were seeded in clear-base white walled 384-well plates (Corning) at a density of 5000 cells/well. On the day of assay, growth media was removed and replaced with 15 μl of assay buffer (MEMα, 5 mg/ml fatty acid free BSA (Sigma)) per well. Cells were then incubated for 30 minutes at 37° C., 5% CO2. Compound was serially diluted in DMSO before being diluted 1:10 with assay buffer. 2.5 μl of compound diluted in assay buffer was added and cells incubated for 5 minutes at 37° C., 5% CO2. 2.5 μl of each reagent was then added in the following order: RαMH (10 nM), isobutylmethylxanthine (1-methyl-3-(2-methylpropyl)-7H-purine-2,6-dione; IBMX) (500 μM) (Sigma) and forskolin (1 μM). Cells were then incubated for 90 minutes at 37° C., 5% CO2, followed by 30 minutes at room temperature. At the end of incubation 25 μl of Steadylite reagent (Perkin Elmer) was added, plates were sealed and placed on a shaker for 5 minutes. The level of light output to determine the level of luciferase expression was then measured.
IC50 values for compounds were determined from ten point half log scale dose-response studies and represent the concentration of compound required to […] 50% inhibition of forskolin stimulated cells in the presence of RαMH alone. Curves were generated using the average of duplicate wells for each data point and analyzed using nonlinear regression of four parameter dose response.

H3 receptor [3] = target: T2, H3 receptor (Rattus norvegicus, UniProt Q9QYN8); conditions: cited from earlier work
T2 construct: host or cells: living rat (endogenous receptor)
T2 sequence (Q9QYN8 whole entry): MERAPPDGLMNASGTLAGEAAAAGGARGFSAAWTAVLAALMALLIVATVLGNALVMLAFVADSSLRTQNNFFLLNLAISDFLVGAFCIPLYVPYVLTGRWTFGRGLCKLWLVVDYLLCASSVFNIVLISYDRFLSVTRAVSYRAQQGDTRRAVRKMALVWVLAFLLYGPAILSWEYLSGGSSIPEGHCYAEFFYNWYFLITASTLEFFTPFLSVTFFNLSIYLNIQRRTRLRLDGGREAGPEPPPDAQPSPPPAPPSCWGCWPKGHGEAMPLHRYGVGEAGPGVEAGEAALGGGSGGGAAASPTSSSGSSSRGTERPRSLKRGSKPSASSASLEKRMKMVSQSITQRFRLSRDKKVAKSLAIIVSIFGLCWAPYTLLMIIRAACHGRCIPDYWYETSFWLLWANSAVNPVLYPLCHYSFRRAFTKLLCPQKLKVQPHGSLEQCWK

H3 receptor [4] = target: T2, H3 receptor; conditions: cited from earlier work; remark: listed apart in the source
rat H3 receptors = rat H3 receptors (Rattus norvegicus, UniProt Q9QYN8); conditions: cited from earlier work
Sequence of rat H3 receptors (Q9QYN8 whole entry): as above

human H3 receptor [5] = target: T1, human H3 receptor; conditions: cited from earlier work
H3 receptor [6] = target: T3, H3 receptor (Mus musculus, UniProt P58406); conditions: lean and obese mice; cited from earlier work
T3 construct: host or cells: living mouse (endogenous receptor)
T3 sequence (P58406 whole entry): as the sequence (Q9QYN8 whole entry) above, with T15A, A286T, A290G, R387H, I389V counted along it

H3 receptor [7] = target: T3, H3 receptor; conditions: mice; cited from earlier work
H3 receptor [8] = conditions: a number of acute pain models; cited from earlier work

T1 sequence (Q9Y5N1 whole entry): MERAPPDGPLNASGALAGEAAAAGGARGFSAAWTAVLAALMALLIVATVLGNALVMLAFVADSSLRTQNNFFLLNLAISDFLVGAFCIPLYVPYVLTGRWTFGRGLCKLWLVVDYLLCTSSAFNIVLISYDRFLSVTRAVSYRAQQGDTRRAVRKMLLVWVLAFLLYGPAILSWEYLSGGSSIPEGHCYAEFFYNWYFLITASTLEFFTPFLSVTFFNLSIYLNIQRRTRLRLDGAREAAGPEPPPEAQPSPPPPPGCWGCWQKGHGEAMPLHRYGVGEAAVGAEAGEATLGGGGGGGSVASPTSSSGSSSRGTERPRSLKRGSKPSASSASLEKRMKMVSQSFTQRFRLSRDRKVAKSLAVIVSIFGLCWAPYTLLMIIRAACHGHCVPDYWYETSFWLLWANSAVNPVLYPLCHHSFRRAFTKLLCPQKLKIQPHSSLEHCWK

Q: For `CO[C@@H]1CCN(c2ncc(C(=O)NCc3ccc4c(c3)CCN(C3CCC3)CC4)cn2)C1` [Example 1, N-[(3-cyclobutyl-2,3,4,5-tetrahydro-1H-3-benzazepin-7-yl)methyl]-2-[(3R)-3-methoxypyrrolidin-1-yl]pyrimidine-5-carboxamide], which IC50 (human H3 receptor [1]) is on record?
A: Its IC50 is 0.5 nM.

Q: And the IC50 (human H3 receptor [2])?
A: Its IC50 is 1 nM.

Q: What does the source list for `CO[C@H]1CCN(c2ncc(C(=O)NCc3ccc4c(c3)CCN(C3CCC3)CC4)cn2)C1` [Example 2, N-[(3-cyclobutyl-2,3,4,5-tetrahydro-1H-3-benzazepin-7-yl)methyl]-2-[(3S)-3-methoxypyrrolidin-1-yl]pyrimidine-5-carboxamide]?
A: IC50 (human H3 receptor [1]): 2 nM; IC50 (human H3 receptor [2]): 2 nM

Q: Which results are given for `COC1CN(c2ncc(C(=O)NCc3ccc4c(c3)CCN(C3CCC3)CC4)cn2)C1` [Example 3, N-((3-cyclobutyl-2,3,4,5-tetrahydro-1H-3-benzazepin-7-yl)methyl)-2-(3-methoxyazetidin-1-yl)pyrimidine-5-carboxamide]?
A: IC50 (human H3 receptor [1]): 3 nM; IC50 (human H3 receptor [2]): 2 nM

Q: With `O=C(NCc1ccc2c(c1)CCN(C1CCC1)CC2)c1cnc(N2CCC(F)(F)C2)nc1` [Example 4, N-[(3-cyclobutyl-2,3,4,5-tetrahydro-1H-3-benzazepin-7-yl)methyl]-2-(3,3-difluoropyrrolidin-1-yl)pyrimidine-5-carboxamide] as the compound, how does the IC50 (human H3 receptor [1]) read?
A: Its IC50 is 2 nM.

Q: And the IC50 (human H3 receptor [2])?
A: The IC50 was 3 nM.

Q: Which results are given for `O=C(NCc1ccc2c(c1)CCN(C1CCC1)CC2)c1cnc(N2CCC(F)(F)CC2)nc1` [Example 5, N-((3-cyclobutyl-2,3,4,5-tetrahydro-1H-3-benzazepin-7-yl)methyl)-2-(4,4-difluoropiperidin-1-yl)pyrimidine-5-carboxamide]?
A: IC50 (human H3 receptor [1]): 1 nM; IC50 (human H3 receptor [2]): 3 nM

Q: Which IC50 (human H3 receptor [1]) does the source give for `CO[C@H]1CCN(c2ncc(C(=O)N(C)Cc3ccc4c(c3)CCN(C3CCC3)CC4)cn2)C1` [Example 6, N-[(3-cyclobutyl-2,3,4,5-tetrahydro-1H-3-benzazepin-7-yl)methyl]-2-[(3S)-3-methoxypyrrolidin-1-yl]-N-methylpyrimidine-5-carboxamide] here?
A: Its IC50 is 4 nM.

Q: And the IC50 (human H3 receptor [2])?
A: Its IC50 is 2 nM.

Q: Which IC50 (human H3 receptor [1]) does the source give for `CO[C@@H]1CCN(c2ncc(C(=O)N(C)Cc3ccc4c(c3)CCN(C3CCC3)CC4)cn2)C1` [Example 7, N-[(3-cyclobutyl-2,3,4,5-tetrahydro-1H-3-benzazepin-7-yl)methyl]-2-[(3R)-3-methoxypyrrolidin-1-yl]-N-methylpyrimidine-5-carboxamide] here?
A: The IC50 was 5 nM.

Q: And the IC50 (human H3 receptor [2])?
A: The IC50 was 6 nM.

Q: Which IC50 (human H3 receptor [1]) does the source give for `CO[C@@H](C)CN(C)c1ncc(C(=O)NCc2ccc3c(c2)CCN(C2CCC2)CC3)cn1` [Example 8, N-[(3-cyclobutyl-2,3,4,5-tetrahydro-1H-3-benzazepin-7-yl)methyl]-2-{[(2S)-2-methoxypropyl](methyl)amino}pyrimidine-5-carboxamide] here?
A: The IC50 was 0.73 nM.

Q: What about the IC50 (human H3 receptor [2]) of the same compound?
A: The IC50 was 2 nM.

Q: Which IC50 (human H3 receptor [1]) does the source give for `CO[C@H](C)CN(C)c1ncc(C(=O)NCc2ccc3c(c2)CCN(C2CCC2)CC3)cn1` [Example 9, N-[(3-cyclobutyl-2,3,4,5-tetrahydro-1H-3-benzazepin-7-yl)methyl]-2-{[(2R)-2-methoxypropyl](methyl)amino}pyrimidine-5-carboxamide] here?
A: The IC50 was 4 nM.

Q: And the IC50 (human H3 receptor [2])?
A: The IC50 was 8 nM.

Q: For `C[C@H]1CC[C@H](C)N1CCCOc1ccc(-c2ccc(C(=O)N3CCOCC3)cc2)cc1` [Example A-349821], which cognition-enhancing effects (H3 receptor [3]) is on record?
A: The cognition-enhancing effects was “cognition-enhancing effects”.

Q: For `CNC(=O)c1cnc(Oc2ccc3c(c2)CCN(C2CCC2)CC3)cn1` [GSK207040], which tactile allodynia (H3 receptor [4]) is on record?
A: Its tactile allodynia is “reduced tactile allodynia”.

Q: And the “affinity for rat H3 receptors” value (rat H3 receptors)?
A: Its value is “high affinity”.

Q: Which results are given for `CC(C)N1CCCN(C(=O)C2CCN(c3ccc(C(F)(F)F)nc3)CC2)CC1` [GSK334429]?
A: tactile allodynia (H3 receptor [4]): reduced tactile allodynia; affinity for rat H3 receptors (rat H3 receptors): high affinity; affinity for human H3 receptors (human H3 receptor [5]): high affinity

Q: For `NC(=NCc1ccc(Cl)cc1)SCCCc1cnc[nH]1` [clobenpropit], which energy intake (H3 receptor [6]) is on record?
A: Its energy intake is “reducing energy intake”.

Q: What about the “histamine release in the hypothalamus” value (H3 receptor [7]) of the same compound?
A: Its value is “increases histamine release”.

Q: For `S=C(NC1CCCCC1)N1CCC(c2cnc[nH]2)CC1` [thioperamide], which antinociceptive effect (H3 receptor [8]) is on record?
A: The antinociceptive effect was “antinociceptive effect”.
